Measurements published in patent US20260242759A1, “GQ/11 Protein Peptidomimetics” (Vrije Universiteit Brussel, priority 2022, published 2026).
Non-standard residues stand in square brackets, D forms with d. Residues, ends and D or L forms follow the SMILES beside them. Cha = N[C@@H](CC1CCCCC1)C(=O)O

How the values were obtained:
HEK293 1C8 cells = assay: MTT cytotoxicity assay; type: cell-based, human; conditions: varying concentrations up to 40 μM, 3 h 45 min
Experimental: Cells were washed two times with PBS and incubated with 3-(4,5-dimethylthiazol-2-yl)-2,5-diphenyltetrazolium bromide (MTT) during 3 h, at 37° C. Afterwards, cells were washed once with PBS and then incubated for 10 min with DMSO. Plates were analysed with a Tecan Spark 10 M microplate reader.
An MTT assay was used to assess the cytotoxicity of the non-fluorescent Gq/11 peptidomimetics of Example 5. An MTT assay is a colorimetric test that evaluates the cell metabolic activity and reflects the cell viability.

[1] = molecular target: T1, human ghrelin receptor (GHSR) (Homo sapiens, UniProt Q92847, C146S/C304S); assay: Bimane fluorescence assay on purified ghrelin receptor in nanodiscs; type: biochemical; conditions: bimane labeled GHSR, in presence of JMV1843
T1 construct: integrin α5 fragment (N); polyhistidine tag (C); made in house; host or cells: E. coli BL21(DE3)
T1 sequence (Q92847 whole entry C146S/C304S, the tested form may be a part): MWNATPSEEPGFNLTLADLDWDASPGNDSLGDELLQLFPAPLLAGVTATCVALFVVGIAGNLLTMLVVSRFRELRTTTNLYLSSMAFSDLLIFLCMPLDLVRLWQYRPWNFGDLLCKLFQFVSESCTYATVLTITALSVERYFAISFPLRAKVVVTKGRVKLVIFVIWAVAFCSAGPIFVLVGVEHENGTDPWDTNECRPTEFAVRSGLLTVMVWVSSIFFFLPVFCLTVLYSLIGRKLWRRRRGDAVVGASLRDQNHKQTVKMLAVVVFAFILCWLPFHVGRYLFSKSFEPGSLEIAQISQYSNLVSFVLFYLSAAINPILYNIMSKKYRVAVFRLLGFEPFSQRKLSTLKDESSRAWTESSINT
Summary of the method: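 E. coli-expressed human ghrelin receptor (cysmin mutant, N-terminal integrin α5 fragment, C-terminal His-tag) purified into lipid nanodiscs and labelled with monobromobimane at Cys255 (16 h, 4° C, dark). Labelled receptor (0.2 μM final) incubated 2 h at 20° C with or without JMV1843 (20 μM) and peptidomimetics at varying molar ratios, or Gαqβ1γ2 at 1:5 receptor:G protein; emission scanned 440–520 nm with excitation at 380 nm for λmax shift.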

CC[C@H](C)[C@H](NC(=O)[C@@H](NC(=O)[C@H](CC(=O)O)NC(=O)[C@H](CCCCN)NC(=O)[C@@H](NC(=O)[C@H](C)NC(=O)[C@H](C)NC(=O)[C@H](Cc1ccccc1)NC(=O)[C@H](CCCCN)NC(=O)[C@H](CCCCN)NC(=O)[C@H](CCCCN)NC(C)=O)C(C)C)[C@@H](C)O)C(=O)N[C@@H](CC(C)C)C(=O)N[C@@H](CCC(N)=O)C(=O)N[C@@H](CC(C)C)C(=O)N[C@@H](CC(N)=O)C(=O)N[C@@H](CC(C)C)C(=O)N[C@@H](CCCCN)C(=O)N[C@@H](CCC(=O)O)C(=O)N[C@@H](Cc1ccc(O)cc1)C(=O)N[C@@H](CC(N)=O)C(=O)N[C@@H](CC1CCCCC1)C(=O)N[C@H](C(=O)O)C(C)C [SBL-GQ-04] (Ac-KKKFAAVKDTILQLNLKEYN[Cha]V-OH)
cytotoxicity / viability (HEK293 1C8 cells): No cytotoxicity | conformational change in the receptor [1]: not able to induce a conformational change
